Source: article PMC5609913, “Structure based design, synthesis and activity studies of small hybrid molecules as HDAC and G9a dual inhibitors” (Oncotarget, 2017)
Like-named read-outs stand apart in the source and are kept apart here.

Columns and labels:
MDA-MB-231 cells = assay: Cell anti-proliferation / toxicity assay (CCK-8), MDA-MB-231; format: cell-based; details: Homo sapiens, MDA-MB-231, 72 h, CCK-8, read-out: EC50 MDA-MB-231
Experimental: Initial tests designed around assessing whether a synergistic effect would be observed in real when a combination of G9a inhibitor and HDAC inhibitor used in conjunction.
Cell anti-proliferation assays were performed to determine the toxicity of these inhibitors. Several cell lines (MDA-MB-231, MCF-7 and A549) were incubated and then treated with varying concentrations of the inhibitors for 72 h, respectively. […] These compounds were further evaluated against the control cell line HEK293 to test their toxicity with a non-cancerous cell line.
A549, MDA-MB-231, MCF-7 and HEK293 cells were seeded at 8000-10000 cells (100 μl) in white 96-well plates and pre-incubate the plate for 24 h under standard cell culture conditions, respectively. And then the cells were exposed to the different inhibitors with various concentrations for 72 h. Finally, 10 μl of CCK-8 kit solution was added to each well and incubated for 3-4 hours under standard cell culture conditions, and the 96 well plates were measured the absorbance at 450 nm using Perkin–Elmer Wallac Victor ^3V 1420 multi label plate reader (Perkin–Elmer, Wellesley, USA). EC50s were calculated using GraphPad Prizm statistical package with sigmoidal variable slope dose response curve fit.

MCF-7 cells = assay: Cell anti-proliferation / toxicity assay (CCK-8), MCF-7; format: cell-based; details: Homo sapiens, MCF7, 72 h, CCK-8, read-out: EC50 MCF-7
Experimental: Cell anti-proliferation assays were performed to determine the toxicity of these inhibitors. […] These compounds were further evaluated against the control cell line HEK293 to test their toxicity with a non-cancerous cell line.
And then the cells were exposed to the different inhibitors with various concentrations for 72 h. […] EC50s were calculated using GraphPad Prizm statistical package with sigmoidal variable slope dose response curve fit.

[1] = biological target: T1, Mouse histone methyltransferase G9a (969-1263) (Mus musculus, UniProt Q9Z148); assay: MALDI-TOF methylation study of G9a enzymatic activity (H3 peptide, SAM); format: biochemical
T1 construct: The 6His-sumo mG9a (969-1263) protein was purified using the following procedure; 6His-sumo (N, cleaved yes); made in house; host or cells: Escherichia coli BL21 (DE3)
T1 sequence (Q9Z148 969-1263): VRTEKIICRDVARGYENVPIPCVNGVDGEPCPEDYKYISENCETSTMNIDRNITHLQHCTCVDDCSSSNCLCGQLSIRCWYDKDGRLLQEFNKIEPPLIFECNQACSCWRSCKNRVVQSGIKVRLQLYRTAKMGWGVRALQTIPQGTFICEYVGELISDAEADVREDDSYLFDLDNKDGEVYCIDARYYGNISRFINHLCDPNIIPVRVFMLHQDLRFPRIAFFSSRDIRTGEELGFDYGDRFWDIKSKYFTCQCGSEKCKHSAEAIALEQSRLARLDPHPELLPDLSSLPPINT
Experimental: Figure 3 compounds were synthesized from the commercially available starting material 1. An initial displacement reaction using a primary amine was used to introduce the C4 selective substitution, with the second displacement to introduce the linker at the C2 position following the microwave assisted reaction previously reported. Boc-protected ethylene diamine was treated with compound 2 at 160°C in a microwave for 10 min to yield product 3 with excellent yield. Afterward, the amine 3 was deprotected with TFA/DCM, and the free amine was treated with corresponding monomethyl esters (carbon chain 2-6) in the presence of coupling reagent EDCI and HOBt for about 8 hours to produce mono methyl ester substituted at the C2 position. The ester compounds further treated with hydroxylamine in water to get the corresponding hydroxamic acid derivatives, which were purified using reverse phase flash chromatography to obtain compounds 4-7 and 4a-7a in good yield. Synthesis of compounds in Figure 4 requires the C6 demethoxy core, and this was synthesized according to the reported procedure to yield 10 [45]. […] Compounds with the HDAC pharmacophore at the C4 position (Figure 2B) were synthesized from the starting material 1. […] A parallel synthesis and testing strategy were used in establishing the primary SAR, with the clear rationalization of the structure and activity at each stage we could reduce the synthetic targets. Initially, we evaluated the G9a potential after the introduction of HDAC pharmacophore. A biochemical assay using MALDI-TOF was used to visualize the effects of the synthesized compounds on G9a enzymatic activity, we carried out a biochemical reaction involving target enzyme G9a, methyl donor SAM and substrate H3 peptide at a concentration of 400 nM, 10 μM and 5 μM respectively.
Mouse histone methyltransferase G9a (969-1263) cDNA was amplified from the cDNA of BALB/c mouse thymus, and the fragment was sub-cloned into a vector with a 6His-sumo tag. The mouse G9a (mG9a) was expressed in Escherichia coli BL21 (DE3) by the addition of 1 mM isopropyl-1-thio-D-galactopyranoside (IPTG) and incubated overnight at 16°C.
The in vitro inhibition of G9a by the synthesized compounds were measured by MALDI-TOF mass spectrum (Bruker MALDI TOF/TOF Analyzer). 400 nM purified G9a, 5 μM synthesized histone H3 (1-21) and 10 μM non-radioactive S-adenosyl methionine (Sigma) were added in reaction buffer (50 mM HEPES pH 8.0, 5 μg/ml BSA and 0.1% β-Mercaptoethanol) with or without inhibitors (5 μM). The reaction was incubated at room temperature for 30 min, and stopped by TFA. 1 μl of the sample was mixed with CHCA matrix and m/z peaks were obtained at reflection positive mode. The results of mass spectrum were analyzed using the Bruker flex analysis software, a detailed description of data processing is provided as supplementary information (S3).
[…]
MALDI spectrums were collected using Bruker flex % conversion to product is also C, from this to get the control software and analyzed by flex analysis. After %maximal activity (%MA), C was compared to the % labelling each cluster peaks of H3K9Me0, H3K9Me1 conversion when no inhibitor was used (D). and H3K9Me2 for all of the tested concentrations, area Finally % inhibition was found by subtracting under the cluster (AUC) were extracted by using the same %MA from 100 […]
flex analysis software. % abundance of each peak was Example: % methylation levels and % inhibition calculated by following formula, when used 5 μM compound 14
A = % Abundance of (H3K9Me0) = area of A = 13.09
B = % Abundance of (H3K9Me1) = area of % conversion when no inhibitor was used D = 84.43 H3K9Me1/ (area of H3K9Me0+area of H3K9Me1 + area (average of six measurements) […]

[2] = Supplementary Table 4, >100 = not reached at 100 μM
[3] = Supplementary Table 1, inhibitor 5 μM, 30 min, average of 3 values
[4] = Table 6, mean ± SD of triplicates

SMILES | inhibition at 5 µM [1, 3] [%] | EC50 (MDA-MB-231 cells; [2]) [µM] | EC50 (MCF-7 cells; [2]) [µM] | further results
COc1ccc2c(NCCNC(=O)CCCCCC(=O)NO)nc(N3CCCN(C)CC3)nc2c1 [Compound 22, N1-hydroxy-N7-(2-((7-methoxy-2-(4-methyl-1,4-diazepan-1-yl)quinazolin-4-yl)amino)ethyl)heptanediamide] | 40.3 ± 15.3 | > 100 | > 100 | –
COc1ccc2c(NC3CCN(Cc4ccccc4)CC3)nc(NCCNC(=O)CCCCCCC(=O)NO)nc2c1 [Compound 13, N1-(2-((4-((1-benzylpiperidin-4-yl)amino)-7-methoxyquinazolin-2-yl)amino)ethyl)-N8-hydroxyoctanediamide] | 24.9 ± 17.4 | – | – | EC50 (MDA-MB-231 cells; [4]): 89.3 ± 1.23 µM; EC50 (MCF-7 cells; [4]): 79.4 ± 2.72 µM
COc1cc2nc(N3CCCN(C)CC3)nc(NC3CCN(C(=O)CCCCCC(=O)NO)CC3)c2cc1OC [Compound 20, 7-(4-((6,7-dimethoxy-2-(4-methyl-1,4-diazepan-1-yl)quinazolin-4-yl)amino)piperidin-1-yl)-N-hydroxy-7-oxoheptanamide] | 14.6 ± 15.8 | > 100 | > 100 | –
COc1ccc2c(NC3CCN(Cc4ccccc4)CC3)nc(NCCNC(=O)CCCCCC(=O)NO)nc2c1 [Compound 14, N1-(2-((4-((1-benzylpiperidin-4-yl)amino)-7-methoxyquinazolin-2-yl)amino)ethyl)-N7-hydroxyheptanediamide] | 29.7 ± 23.3 | – | – | EC50 (MDA-MB-231 cells; [4]): 10 ± 1.66 µM; EC50 (MCF-7 cells; [4]): 37.4 ± 2.2 µM; inhibition at 5 µM ([1]; worked example, single spectrum, 5 μM compound): 69.5%; A = % Abundance of (H3K9Me0) ([1]; worked example, 5 μM compound): 13.09%; B = % Abundance of (H3K9Me1) ([1]; worked example, 5 μM compound): 61.18%; C = % Abundance of (H3K9Me2) (% conversion to product) ([1]; worked example, 5 μM compound): 25.72%; activity at 5 µM ([1]; worked example, 5 μM compound, relative to no inhibitor (84.43), read-out: % maximal activity (%MA)): 30.5%
COc1cc2nc(N3CCCN(C)CC3)nc(NC3CCN(C(=O)CCCCCCC(=O)NO)CC3)c2cc1OC [Compound 19, 8-(4-((6,7-dimethoxy-2-(4-methyl-1,4-diazepan-1-yl)quinazolin-4-yl)amino)piperidin-1-yl)-N-hydroxy-8-oxooctanamide] | 10.7 ± 25.9 | > 100 | > 100 | –
COc1cc2nc(NCCNC(=O)CCCCCCC(=O)NO)nc(NC3CCN(C(C)C)CC3)c2cc1OC [Compound 4a, N1-hydroxy-N8-(2-((4-((1-isopropylpiperidin-4-yl)amino)-6,7-dimethoxyquinazolin-2-yl)amino)ethyl)octanediamide] | 11.2 ± 3.68 | > 100 | > 100 | –
COc1cc2nc(NCCNC(=O)CCCCCCC(=O)NO)nc(NC3CCN(C)CC3)c2cc1OC [Compound 4, N1-(2-((6,7-dimethoxy-4-((1-methylpiperidin-4-yl)amino)quinazolin-2-yl)amino)ethyl)-N8-hydroxyoctanediamide] | 27 ± 12.2 | > 100 | > 100 | –
COc1ccc2c(NC3CCN(Cc4ccccc4)CC3)nc(NCCNC(=O)CCCC(=O)NO)nc2c1 [Compound 16, N1-(2-((4-((1-benzylpiperidin-4-yl)amino)-7-methoxyquinazolin-2-yl)amino)ethyl)-N5-hydroxyglutaramide] | 40.3 ± 13.8 | 38.1 | 57.3 | –
COc1ccc2c(NC3CCN(Cc4ccccc4)CC3)nc(NCCNC(=O)CCCCC(=O)NO)nc2c1 [Compound 15, N1-(2-((4-((1-benzylpiperidin-4-yl)amino)-7-methoxyquinazolin-2-yl)amino)ethyl)-N6-hydroxyadipamide] | 69.1 ± 24.5 | 95.2 | > 100 | –
COc1cc2nc(NCCNC(=O)CCCC(=O)NO)nc(NC3CCN(C)CC3)c2cc1OC [Compound 7, N1-(2-((6,7-dimethoxy-4-((1-methylpiperidin-4-yl)amino)quinazolin-2-yl)amino)ethyl)-N5-hydroxyglutaramide] | 19.6 ± 20.9 | > 100 | > 100 | –

Now from value to compound, other results behind:

inhibition at 5 µM [1, 3] [%] | SMILES | EC50 (MDA-MB-231 cells; [2]) [µM] | EC50 (MCF-7 cells; [2]) [µM] | further results
15 ± 15.7 | COc1cc2nc(NCCNC(=O)CCCC(=O)NO)nc(NC3CCN(C(C)C)CC3)c2cc1OC [Compound 7a, N1-hydroxy-N5-(2-((4-((1-isopropylpiperidin-4-yl)amino)-6,7-dimethoxyquinazolin-2-yl)amino)ethyl)glutaramide] | > 100 | > 100 | –
47.9 ± 12.9 | COc1ccc2c(NC3CCN(C)CC3)nc(NCCNC(=O)CCCCC(=O)NO)nc2c1 [Compound 15a, N1-hydroxy-N6-(2-((7-methoxy-4-((1-methylpiperidin-4-yl)amino)quinazolin-2-yl)amino)ethyl)adipamide] | 77.6 | > 100 | –
47.5 ± 9.32 | COc1cc2nc(NCCNC(=O)CCCCCC(=O)NO)nc(NC3CCN(C(C)C)CC3)c2cc1OC [Compound 5a, N1-hydroxy-N7-(2-((4-((1-isopropylpiperidin-4-yl)amino)-6,7-dimethoxyquinazolin-2-yl)amino)ethyl)heptanediamide] | > 100 | > 100 | –
38 ± 4.99 | COc1cc2nc(NCCNC(=O)CCCCCC(=O)NO)nc(NC3CCN(Cc4ccccc4)CC3)c2cc1OC [Compound 5b, N1-(2-((4-((1-benzylpiperidin-4-yl)amino)-6,7-dimethoxyquinazolin-2-yl)amino)ethyl)-N7-hydroxyheptanediamide] | 12.3 ± 3.27 | 74.6 ± 1.81 | –
40.3 ± 13.8 | COc1ccc2c(NC3CCN(C)CC3)nc(NCCNC(=O)CCCC(=O)NO)nc2c1 [Compound 16a, N1-hydroxy-N5-(2-((7-methoxy-4-((1-methylpiperidin-4-yl)amino)quinazolin-2-yl)amino)ethyl)glutaramide] | 90.5 | > 100 | –
